This test has as its target T1, H3R membranes (human histamine 3 receptor) (Homo sapiens, UniProt Q9Y5N1).
T1 construct: expressed in transfected cells; pcDNA3.1(+) vector, G418 selection)
The test can be described thus: [35S] GTP γ [S] Binding Assay. It is filed as biochemical. Conditions: inhibition of [35S]GTPγS binding to membranes from H3R8-expressing HEK293 cells in the presence of agonist R(−)alpha methylhistamine. The protocol:
Membranes isolated as described in (Preparation of Histamine Receptor Subtype Membranes) were used in a [35S]GTPχS functional assay. Binding of [35S]GTPχS to membranes indicates agonist activity. Compounds of the invention of Formula I were tested for their ability to inhibit binding in the presence of agonists. Alternately, the same transfected cell lines were used for a cAMP assay wherein H3R agonists inhibited forskolin-activated synthesis of cAMP. Compounds of Formula I were tested for their ability to permit forskolin-stimulated cAMP synthesis in the presence of agonist. cDNA for the human histamine 3 receptor was cloned and expressed as described in (A. Preparation H1R membranes), above. Transfected cells were selected using G418 ([…]), grown, and tested for histamine binding by the SPA described above. For total binding, cells were assayed in a SPA reaction described above containing 50 mM Tris-HCL (assay buffer), pH 7.6, 1 mg wheat germ agglutinin SPA beads (Amersham Pharmacia Biotech, #RPNQ0001), and 1 nM (^3H)-n-alpha-methylhistamine (NEN, NET1027) (total volume per well=200 μl). Thioperimide was added to determine non-specific binding. Several clones were selected as positive for binding, and a single clone (H3R8) was used to prepare membranes for binding studies described above. […] Plates were counted in Wallac Trilux 1450 Microbeta scintillation counter for 1 minute. […]

By Ki is commonly meant the dissociation constant of the complex between target and ligand, obtained from inhibition or displacement.

T1 sequence (Q9Y5N1 whole entry): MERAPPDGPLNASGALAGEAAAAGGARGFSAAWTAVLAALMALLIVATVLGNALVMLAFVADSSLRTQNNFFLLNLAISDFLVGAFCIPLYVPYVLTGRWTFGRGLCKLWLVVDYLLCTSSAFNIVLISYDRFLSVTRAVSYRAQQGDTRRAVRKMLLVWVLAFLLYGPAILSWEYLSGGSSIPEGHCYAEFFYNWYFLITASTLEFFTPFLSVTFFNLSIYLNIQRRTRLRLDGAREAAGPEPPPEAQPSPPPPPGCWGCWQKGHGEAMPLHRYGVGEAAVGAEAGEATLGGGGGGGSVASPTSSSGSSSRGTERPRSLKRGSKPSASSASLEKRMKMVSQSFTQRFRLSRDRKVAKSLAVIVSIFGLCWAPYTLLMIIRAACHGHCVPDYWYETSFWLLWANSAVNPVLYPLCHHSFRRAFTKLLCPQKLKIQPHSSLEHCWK

As to `COc1ccc(COc2ccc(C(=O)N3CCC[C@H]3CN3CCCC3)cc2)cc1`, the inhibitory constant (Ki) stood at 19 nM.

Consider `O=C(c1ccc(OCc2cnccn2)cc1)N1CCC[C@H]1CN1CCCC1`, for which the Ki is 4.1 nM.

Source of the values: patent US7696234B2, “Histamine H3 receptor agents, preparation and therapeutic uses” (Eli Lilly and Company, priority 2004, dated 2010).
